Measurements: patent US6974870B2, “Substituted 3-amino-thieno [2,3-b]pyridine-2-carboxylic acid amide compounds and processes for preparing and their uses” (Boehringer Ingelheim Phamaceuticals, Inc., priority 2002, dated 2005)

molecular target: T1, human IKKβ (Homo sapiens, UniProt O14920); experiment: IKKβ kinase inhibition assay (phosphorylation of IκBα substrate, 33P-ATP); assay type: biochemical; conditions: flag-tagged human IKKβ 0.9 μg/ml, GST-IκBα (1-54) 53 μg/ml, 250 nM ATP, 1 hour at 25° C.
T1 construct: FLAG (N)
T1 sequence (O14920 1-756): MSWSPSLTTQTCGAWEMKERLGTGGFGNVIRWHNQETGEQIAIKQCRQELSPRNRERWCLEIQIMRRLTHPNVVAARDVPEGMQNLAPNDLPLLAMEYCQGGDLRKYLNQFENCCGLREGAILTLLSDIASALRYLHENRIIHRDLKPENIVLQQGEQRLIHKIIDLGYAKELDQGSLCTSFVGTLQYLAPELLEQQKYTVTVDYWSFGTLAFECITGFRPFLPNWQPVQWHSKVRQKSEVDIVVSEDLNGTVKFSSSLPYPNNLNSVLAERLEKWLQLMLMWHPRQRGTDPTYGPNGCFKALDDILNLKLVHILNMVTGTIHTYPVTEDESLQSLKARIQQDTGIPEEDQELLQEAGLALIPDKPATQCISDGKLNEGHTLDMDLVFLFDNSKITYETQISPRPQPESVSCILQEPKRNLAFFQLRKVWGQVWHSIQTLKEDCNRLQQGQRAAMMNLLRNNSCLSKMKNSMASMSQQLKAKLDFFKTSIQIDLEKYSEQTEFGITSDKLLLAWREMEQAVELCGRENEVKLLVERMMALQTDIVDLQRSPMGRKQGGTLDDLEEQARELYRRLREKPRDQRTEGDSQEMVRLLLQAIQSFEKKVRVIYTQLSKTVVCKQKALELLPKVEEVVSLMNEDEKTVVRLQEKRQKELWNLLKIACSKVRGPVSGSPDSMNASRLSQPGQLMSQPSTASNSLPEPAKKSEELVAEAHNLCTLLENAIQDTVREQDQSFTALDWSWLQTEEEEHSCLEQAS
Protocol: (§1) The inhibition of IKKα and IKKβ by the compounds of the present invention was determined with the following assay that measures the phosphorylation of the IκBα substrate by the respective kinases. The enzymes used in the assay were N-terminally flag-tagged versions of the human IKKβ or IKKα and the substrate was a GST fusion protein with IκBα (amino acids 1-54).
(§2) The reaction mixtures (60 μl) contained 20 mM HEPES pH 7.5, 10 mM MgCl2, 2 mM MnCl2, 100 mM NaCl, 100 μM Na3VO4, 20 mM β-glycerophosphate, 1 mM DTT, 2% DMSO, 250 nM ATP, 0.4 nM [^33P]ATP (specific activity, 3000 Ci/mmol), IκBα substrate, IKK enzyme and test compound. The reaction mixtures contained either 3.6 μg/ml IKKα and 245 μg/ml IκBα or 0.9 μg/ml IKKβ and 53 μg/ml IκBα.
(§3) Reactions were initiated by adding a solution of IκBα substrate and ATP to polypropylene plates containing IKK enzyme that was pre-incubated for 5 minutes with test compound. Then the reaction mixtures were incubated for 1 hour at 25° C., placed on ice and quenched by the addition of 150 μl 10% trichloroacetic acid and 5% disodium pyrophosphate. After mixing, the entire contents of the quenched reaction mixtures were transferred to a pre-wetted Packard UniFilter filtration plate, aspirated and washed 6 times with 250 μl of ddH2O using the Packard Filtermate Harvester. Filtration plates were then air dried, supplemented with 40 μl of Microscint 20 scintillation fluid and the ^33P-labeled reaction products were quantified using the Packard TopCount scintillation counter.
(§4) Compounds were tested in three-fold serial dilutions and inhibitor concentrations to achieve 50% inhibition of enzyme activity (i.e., IC50) were derived from dose-reponse curves using SAS software (SAS Institute, Cary N.C.). A non-linear regression analysis based on the Hill equation was applied to the percent inhibition versus concentration data. In all cases, compound concentrations were verified by HPLC.

IC50 | SMILES
< 1 µM | CCCc1cc(N2CCC(NCC(O)c3ccc(-c4cncnc4)cc3)CC2)nc2sc(C(N)=O)c(N)c12 (centres unmarked) [3-Amino-6-{4-[2-hydroxy-2-(4-pyrimidin-5-yl-phenyl)-ethylamino]-piperidin-1-yl}-4-propyl-thieno[2,3-b] pyridine-2-carboxylic acid amide]
< 1 µM | CCCc1cc(N2CCC(NCC(O)COc3cccc(OC)c3)CC2)nc2sc(C(N)=O)c(N)c12 (centres unmarked) [3-Amino-6-{4-[2-hydroxy-3-(3-methoxy-phenoxy)-propylamino]-piperidin-1-yl}-4-propyl-thieno[2,3-b] pyridine-2-carboxylic acid amide]
< 1 µM | CCCc1cc(N2CCC(NCC(O)COc3ccc(C(F)(F)F)cc3)CC2)nc2sc(C(N)=O)c(N)c12 (centres unmarked) [3-Amino-6-{4-[2-hydroxy-3-(4-trifluoromethyl-phenoxy)-propylamino]-piperidin-1-yl}-4-propyl-thieno[2,3-b] pyridine-2-carboxylic acid amide]
< 1 µM | CCCc1cc(N2CCC(NCC(O)COc3cccc4ccccc34)CC2)nc2sc(C(N)=O)c(N)c12 (centres unmarked) [3-Amino-6-{4-[2-hydroxy-3-(naphthalen-1-yloxy)-propylamino]-piperidin-1-yl}-4-propyl-thieno[2,3-b] pyridine-2-carboxylic acid amide]
< 1 µM | CCCc1cc(N2CCC(NCC(O)COc3ccc4ccccc4c3)CC2)nc2sc(C(N)=O)c(N)c12 (centres unmarked) [3-Amino-6-{4-[2-hydroxy-3-(naphthalen-2-yloxy)-propylamino]-piperidin-1-yl}-4-propyl-thieno[2,3-b] pyridine-2-carboxylic acid amide]
< 1 µM | CCCc1cc(N2CCC(NCC(O)Cc3cccc(C(N)=O)c3)CC2)nc2sc(C(N)=O)c(N)c12 (centres unmarked) [3-Amino-6-{4-[3-(3-carbamoyl-phenyl)-2-hydroxy-propylamino]-piperidin-1-yl}-4-propyl-thieno[2,3-b] pyridine-2-carboxylic acid amide]
< 1 µM | CCCc1cc(N2CCC(NCC(O)CNc3cccc(C(N)=O)c3)CC2)nc2sc(C(N)=O)c(N)c12 (centres unmarked) [3-Amino-6-{4-[3-(3-carbamoyl-phenylamino)-2-hydroxy-propylamino]-piperidin-1-yl}-4-propyl-thieno[2,3-b] pyridine-2-carboxylic acid amide]
< 1 µM | CCCc1cc(N2CCC(NCC(O)COc3cccc(C#N)c3)CC2)nc2sc(C(N)=O)c(N)c12 (centres unmarked) [3-Amino-6-{4-[3-(3-cyano-phenoxy)-2-hydroxy-propylamino]-piperidin-1-yl}-4-propyl-thieno[2,3-b] pyridine-2-carboxylic acid amide]
< 1 µM | CCCc1cc(N2CCC(NCC(O)Cc3ccc(C(N)=O)cc3)CC2)nc2sc(C(N)=O)c(N)c12 (centres unmarked) [3-Amino-6-{4-[3-(4-carbamoyl-phenyl)-2-hydroxy-propylamino]-piperidin-1-yl}-4-propyl-thieno[2,3-b] pyridine-2-carboxylic acid amide]
< 1 µM | CCCc1cc(N2CCC(NCC(O)COc3ccc(C#N)cc3)CC2)nc2sc(C(N)=O)c(N)c12 (centres unmarked) [3-Amino-6-{4-[3-(4-cyano-phenoxy)-2-hydroxy-propylamino]-piperidin-1-yl}-4-propyl-thieno[2,3-b] pyridine-2-carboxylic acid amide]
< 1 µM | CCCc1cc(N2CCC(NCC(O)COc3ccc(F)cc3)CC2)nc2sc(C(N)=O)c(N)c12 (centres unmarked) [3-Amino-6-{4-[3-(4-fluoro-phenoxy)-2-hydroxy-propylamino]-piperidin-1-yl}-4-propyl-thieno[2,3-b] pyridine-2-carboxylic acid amide]

molecular target: T2, human IKKα (Homo sapiens, UniProt O15111); experiment: IKKα kinase inhibition assay (phosphorylation of IκBα substrate, 33P-ATP); assay type: biochemical; conditions: flag-tagged human IKKα 3.6 μg/ml, GST-IκBα (1-54) 245 μg/ml, 250 nM ATP, 1 hour at 25° C.
T2 construct: FLAG (N)
T2 sequence (O15111 1-745): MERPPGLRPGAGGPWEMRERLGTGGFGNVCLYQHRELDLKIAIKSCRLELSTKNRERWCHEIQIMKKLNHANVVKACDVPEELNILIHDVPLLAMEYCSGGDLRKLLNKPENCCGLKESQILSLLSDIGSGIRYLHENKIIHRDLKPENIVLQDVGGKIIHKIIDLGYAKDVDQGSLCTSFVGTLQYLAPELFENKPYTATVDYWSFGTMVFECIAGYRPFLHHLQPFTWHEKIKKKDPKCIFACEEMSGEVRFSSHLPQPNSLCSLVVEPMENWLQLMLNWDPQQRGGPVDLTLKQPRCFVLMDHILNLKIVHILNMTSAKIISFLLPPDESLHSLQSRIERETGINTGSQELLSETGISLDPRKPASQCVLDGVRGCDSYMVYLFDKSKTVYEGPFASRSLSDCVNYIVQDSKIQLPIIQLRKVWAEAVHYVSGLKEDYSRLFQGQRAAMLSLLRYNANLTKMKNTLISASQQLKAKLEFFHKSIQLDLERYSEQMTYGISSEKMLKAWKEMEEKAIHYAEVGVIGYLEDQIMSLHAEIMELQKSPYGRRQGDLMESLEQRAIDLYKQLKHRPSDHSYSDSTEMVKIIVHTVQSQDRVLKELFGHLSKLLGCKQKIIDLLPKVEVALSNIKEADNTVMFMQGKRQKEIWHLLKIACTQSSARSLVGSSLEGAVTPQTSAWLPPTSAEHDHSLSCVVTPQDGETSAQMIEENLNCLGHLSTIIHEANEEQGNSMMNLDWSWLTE
Protocol: as §1, §2, §3, §4

IC50 | SMILES
≤ 10 µM | Cc1cc(-c2ccc(S(C)(=O)=O)cc2)c2c(N)c(C(N)=O)sc2n1 [3-Amino-4-(4-methanesulfonyl-phenyl)-6-methyl-thieno[2,3-b]pyridine-2-carboxylic acid amide]
≤ 10 µM | Cc1cc(/C=C/c2ccc(Cl)cc2)c2c(N)c(C(N)=O)sc2n1 [3-Amino-4-[(E)-2-(4-chloro-phenyl)-vinyl]-6-methyl-thieno[2,3-b]pyridine-2-carboxylic acid amide]
≤ 10 µM | Cc1cc(/C=C/c2ccc(F)cc2)c2c(N)c(C(N)=O)sc2n1 [3-Amino-4-[(E)-2-(4-fluoro-phenyl)-vinyl]-6-methyl-thieno[2,3-b]pyridine-2-carboxylic acid amide]
≤ 10 µM | Cc1cc(-c2ccco2)c2c(N)c(C(N)=O)sc2n1 [3-Amino-4-furan-2-yl-6-methyl-thieno[2,3-b]pyridine-2-carboxylic acid amide]
≤ 10 µM | CC(C)Oc1ccnc2sc(C(N)=O)c(N)c12 [3-Amino-4-isopropoxy-thieno[2,3-b]pyridine-2-carboxylic acid amide]
≤ 10 µM | CCCc1cc(N2CCC(N)(C#N)CC2)nc2sc(C(N)=O)c(N)c12 [3-Amino-6-(4-amino-4-cyano-piperidin-1-yl)-4-propyl-thieno[2,3-b] pyridine-2-carboxylic acid amide]
≤ 10 µM | NC(=O)c1sc2nc(N3CCC(N)CC3)cc(-c3ccc([N+](=O)[O-])cc3)c2c1N [3-Amino-6-(4-amino-piperidin-1-yl)-4-(4-nitro-phenyl)-thieno[2,3-b]pyridine-2-carboxylic acid amide]
≤ 10 µM | NC(=O)c1sc2nc(N3CCC(N)CC3)cc(/C=C/c3ccccc3)c2c1N [3-Amino-6-(4-amino-piperidin-1-yl)-4-((E)-styryl)-thieno[2,3-b]pyridine-2-carboxylic acid amide]
≤ 10 µM | CSc1cc(N2CCC(N)CC2)nc2sc(C(N)=O)c(N)c12 [3-Amino-6-(4-amino-piperidin-1-yl)-4-methylsulfanyl-thieno[2,3-b]pyridine-2-carboxylic acid amide]
≤ 10 µM | CCCc1cc(N2CCC(N)CC2)nc2sc(C(N)=O)c(N)c12 [3-Amino-6-(4-amino-piperidin-1-yl)-4-propyl-thieno[2,3-b] pyridine-2-carboxylic acid amide]
≤ 10 µM | CCCc1cc(N2CCN(C)CC2)nc2sc(C(N)=O)c(N)c12 [3-Amino-6-(4-methyl-piperazin-1-yl)-4-propyl-thieno[2,3-b] pyridine-2-carboxylic acid amide]
≤ 10 µM | CCCc1cc(N2CCC(NC)CC2)nc2sc(C(N)=O)c(N)c12 [3-Amino-6-(4-methylamino-piperidin-1-yl)-4-propyl-thieno[2,3-b] pyridine-2-carboxylic acid amide]
